From patent US20070287691A1, “METHOD FOR ACTIVATING THE LIPID CATABOLIC METABOLISM IN ENTERIC EPITHELIUM AND IMPROVING THE LIPID METABOLISM IN ENTERIC EPITHELIUM” (KAO CORPORATION, priority 2001, published 2007)

System: rat small-intestine epithelial cell strain, IEC-6
Assay: Inhibition test of triacylglycerol synthesis in the small intestine epithelium (Nile Red, FACS)
Format: cell-based
Details: relative value, linoleic acid = 100; 200 μM, 24 hours
Method: Using FCS (fetal calf serum)-free, Dulbecco's modified Eagle's medium (D-MEM) with 5% FBS and 70 μg/mL kanamycin added therein, a rat small-intestine epithelial cell strain, IEC-6, was incubated under 5% CO2 at 37° C. […] Twenty-four hours later, the individual cultures were washed with PBS and subsequent to treatment with tripsin, were peeled off from Culture dishes. Those cultures were separately suspended in portions of HBSS which contained Nile Red (100 ng/mL). Subsequent to incubation at room temperature for […], FACS analysis was conducted. From average fluorescence intensities, synthesized quantities of triacylglycerols were measured.

SMILES | Fluorescence intensity (synthesized quantity of triacylglycerols)
CC/C=C\C/C=C\C/C=C\C/C=C\C/C=C\C/C=C\CCC(=O)O [Docosahexaenoic acid] | 49
CC/C=C\C/C=C\C/C=C\CCCCCCCC(=O)O [α-Linolenic acid] | 42
CC/C=C\C/C=C\C/C=C\C/C=C\C/C=C\CCCC(=O)O [Eicosapentaenoic acid] | 52
CCCCCCCC/C=C\CCCCCCCC(=O)O [Oleic acid] | 191
CCCCC/C=C\C/C=C\CCCCCCCC(=O)O [Linoleic acid] | 100
CCCCC/C=C\C/C=C\C/C=C\CCCCC(=O)O [γ-Linolenic acid] | 70
CCCCC/C=C\C/C=C\C/C=C\C/C=C\CCCC(=O)O [Arachidonic acid] | 87
